Laboratory results: patent US8987249B2, “Substituted 2-Aza-bicyclo[2.2.1]heptane-3-carboxylic acid (benzyl-cyano-methyl)-amides inhibitors of Cathepsin C” (Boehringer Ingelheim International GmbH, priority 2013, dated 2015)

Key:
[1] = Determination of metabolic stability with human liver microsomes; conditions: human, pooled human liver microsomes, pH 7.6
[2] = molecular target: recombinant human Cathepsin K (Homo sapiens (Human), UniProt P43235); experiment: Inhibition of human Cathepsin K; type: biochemical; conditions: substrate Z-Gly-Pro-Arg-AMC
Summary of the method: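 Fluorogenic Z-Gly-Pro-Arg-AMC cleavage, 60 min at room temperature, after a 10 min enzyme–compound preincubation (enzyme 2 ng/μL; compound 0.1 nM–100 μM; 1% DMSO). Buffer pH 5.5 with sodium acetate, EDTA and L-cysteine; procathepsin first activated 30 min at pH 3.5. E64 (1 μM) stop; IC50 derived from percent of vehicle signal minus background (Ex 360/Em 460 nm).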

[3] = molecular target: recombinant human DPPI (Cathepsin C) (Homo sapiens (Human), UniProt P53634); experiment: Inhibition of human DPPI (Cathepsin C); type: biochemical; conditions: substrate Gly-Arg-AMC
Summary of the method: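 Fluorescence read after 30 min room-temperature turnover of 50 μM (final) substrate by recombinant human cathepsin C, pH 6.0 MES/NaCl/DTT/BSA buffer, quenched by Gly-Phe-DMK (1 μM final). Activity as percent of vehicle after background subtraction, used for IC50.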

recombinant human DPPI (Cathepsin C), sequence (P53634 231-394): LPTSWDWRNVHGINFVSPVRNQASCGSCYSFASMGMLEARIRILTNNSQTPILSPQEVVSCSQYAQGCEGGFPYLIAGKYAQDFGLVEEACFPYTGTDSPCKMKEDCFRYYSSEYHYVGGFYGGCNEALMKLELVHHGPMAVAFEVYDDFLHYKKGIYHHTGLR
recombinant human DPPI (Cathepsin C), sequence (P53634 395-463): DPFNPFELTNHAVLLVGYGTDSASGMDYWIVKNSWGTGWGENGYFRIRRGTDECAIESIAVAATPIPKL
recombinant human DPPI (Cathepsin C), sequence (P53634 25-134): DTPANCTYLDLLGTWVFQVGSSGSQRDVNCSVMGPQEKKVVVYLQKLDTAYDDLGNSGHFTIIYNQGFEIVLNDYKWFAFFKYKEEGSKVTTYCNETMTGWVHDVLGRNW
recombinant human Cathepsin K, sequence (P43235 115-329): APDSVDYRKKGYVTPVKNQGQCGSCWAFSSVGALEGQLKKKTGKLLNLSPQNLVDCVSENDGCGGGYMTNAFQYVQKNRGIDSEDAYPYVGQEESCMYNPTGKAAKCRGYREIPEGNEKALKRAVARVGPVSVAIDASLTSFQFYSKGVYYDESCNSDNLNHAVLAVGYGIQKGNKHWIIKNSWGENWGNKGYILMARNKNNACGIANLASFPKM

SMILES	half-life at 1 μM [1] [h]	IC50 [2] [nM]	IC50 [3] [nM]
CN1C(=O)Cc2ccc(-c3ccc(C[C@@H](C#N)NC(=O)[C@H]4N[C@@H]5CC[C@H]4C5)c(F)c3)cc21 [Example 2, (1S,2S,4R)—N-[(1S)-1-cyano-2-[2-fluoro-4-(1-methyl-2-oxo-indolin-6-yl)phenyl]ethyl]-3-azabicyclo[2.2.1]heptane-2-carboxamide]	> 2.08	2800	2
COCCn1cc(-c2ccc(C[C@@H](C#N)NC(=O)[C@H]3N[C@@H]4CC[C@H]3C4)c(F)c2)cn1 [Example 44]	> 2.17	4000	–
COCCn1cc(-c2ccc(CC(C#N)NC(=O)[C@H]3N[C@@H]4CC[C@H]3C4)c(F)c2)cn1 (stereo partly drawn) [Example 97]	> 2.17	7900	–
CN1Cc2cc(-c3ccc(C[C@@H](C#N)NC(=O)[C@H]4N[C@@H]5CC[C@H]4C5)c(F)c3)ccc2S1(=O)=O [Example 169]	> 2.17	5200	–
COCCN1CCN(c2ccc(C[C@@H](C#N)NC(=O)[C@H]3N[C@@H]4CC[C@H]3C4)c(F)c2)CC1C (stereo partly drawn) [Example 178]	> 2.17	–	7.4
N#C[C@H](Cc1ccc(-n2cccn2)cc1F)NC(=O)[C@H]1N[C@@H]2CC[C@H]1C2 [Example 180]	> 2	–	7.7
CS(=O)(=O)c1cc(-c2ccc(C[C@@H](C#N)NC(=O)[C@H]3N[C@@H]4CC[C@H]3C4)c(F)c2F)ccc1C#N [Example 183]	> 2.17	–	8.8
CCNC(=O)c1ccc(-c2ccc(C[C@@H](C#N)NC(=O)[C@H]3N[C@@H]4CC[C@H]3C4)c(F)c2)cc1 [Example 184]	> 2.17	–	8.8
N#C[C@H](Cc1ccc(OCCN2CCNCC2)cc1F)NC(=O)[C@H]1N[C@@H]2CC[C@H]1C2 [Example 189]	> 2.17	–	10.4
COCCN1C(C)CN(c2ccc(C[C@@H](C#N)NC(=O)[C@H]3N[C@@H]4CC[C@H]3C4)c(F)c2)CC1C (stereo partly drawn) [Example 191]	1.52	–	11.2
N#C[C@H](Cc1ccc(-c2cnc3cnccn23)cc1F)NC(=O)[C@H]1N[C@@H]2CC[C@H]1C2 [Example 194]	1.42	–	13.3
CC1CN(c2ccc(C[C@@H](C#N)NC(=O)[C@H]3N[C@@H]4CC[C@H]3C4)c(F)c2)C(C)CN1C (stereo partly drawn) [Example 196]	> 2.17	–	15.1
N#C[C@H](Cc1ccc(N2CCOCC2)cc1F)NC(=O)[C@H]1N[C@@H]2CC[C@H]1C2 [Example 205]	> 2.17	–	25.9
N#C[C@H](Cc1ccc(-c2cnc3n2CCC3)cc1F)NC(=O)[C@H]1N[C@@H]2CC[C@H]1C2 [Example 221]	> 2.17	–	3.7
N#C[C@H](Cc1ccc(N2CCC3C(=O)NCCC3C2)cc1F)NC(=O)[C@H]1N[C@@H]2CC[C@H]1C2 (stereo partly drawn) [Example 248]	> 2.17	–	18
Cn1ccc(-c2ccc(C[C@@H](C#N)NC(=O)[C@H]3N[C@@H]4CC[C@H]3C4)c(F)c2)cc1=O [Example 255]	> 2.17	–	10.9
N#C[C@H](Cc1ccc(-c2ccc(=O)[nH]c2)cc1F)NC(=O)[C@H]1N[C@@H]2CC[C@H]1C2 [Example 258]	> 2.17	–	7.9
CS(=O)(=O)c1ccn(-c2ccc(C[C@@H](C#N)NC(=O)[C@H]3N[C@@H]4CC[C@H]3C4)c(F)c2)c(=O)c1 [Example 266]	> 2.17	–	43.7
CCN1CCN(c2ccc(C[C@@H](C#N)NC(=O)[C@H]3N[C@@H]4CC[C@H]3C4)c(F)c2)CC1 [Example 272]	> 2.17	–	6.8

SMILES	half-life at 1 μM [1] [h]	IC50 [2] [nM]	IC50 [3] [nM]
CN(C)CCCN1C(=O)Cc2ccc(-c3ccc(C[C@@H](C#N)NC(=O)[C@H]4N[C@@H]5CC[C@H]4C5)c(F)c3)cc21 [Example 277]	> 2.17	–	3
N#C[C@H](Cc1ccc([C@@H]2CCN3CCOC[C@H]3C2)cc1F)NC(=O)[C@H]1N[C@@H]2CC[C@H]1C2 [Example 283]	> 2.17	3600	–
N#C[C@H](Cc1ccc(-n2cc(C(F)(F)F)cn2)cc1F)NC(=O)[C@H]1N[C@@H]2CC[C@H]1C2 [Example 285]	> 2.17	8700	–
CN1CCN(C(=O)c2ccc(-c3ccc(C[C@@H](C#N)NC(=O)[C@H]4N[C@@H]5CC[C@H]4C5)c(F)c3)o2)CC1 [Example 289]	1.83	–	2.5
N#CC(Cc1ccc2c(c1)c(=O)[nH]c1c(F)cc(C(N)=O)cc12)NC(=O)[C@H]1N[C@@H]2CC[C@H]1C2 (stereo partly drawn) [Example 291]	> 2.17	–	5.9
N#Cc1ccc2c(c1)[nH]c(=O)c1cc(CC(C#N)NC(=O)[C@H]3N[C@@H]4CC[C@H]3C4)c(F)cc12 (stereo partly drawn) [Example 292]	1.57	–	0.9
Cn1c(=O)c2cc(CC(C#N)NC(=O)[C@H]3N[C@@H]4CC[C@H]3C4)ccc2c2ccc(Cl)cc21 (stereo partly drawn) [Example 305, (1S,2S,4R)—N-[2-(3-chloro-5-methyl-6-oxo-phenanthridin-8-yl)-1-cyano-ethyl]-3-azabicyclo[2.2.1]heptane-2-carboxamide]	1.52	–	6.9
CNC(=O)Cc1ccc2[nH]c(=O)c3cc(CC(C#N)NC(=O)[C@H]4N[C@@H]5CC[C@H]4C5)ccc3c2c1 (stereo partly drawn) [Example 306]	> 2.17	–	7
N#Cc1cc(F)c2[nH]c(=O)c3cc(CC(C#N)NC(=O)[C@H]4N[C@@H]5CC[C@H]4C5)ccc3c2c1 (stereo partly drawn) [Example 307]	> 2.17	–	7.2
N#CC(Cc1ccc2c(c1)c(=O)[nH]c1c(F)cccc12)NC(=O)[C@H]1N[C@@H]2CC[C@H]1C2 (stereo partly drawn) [Example 308]	> 2.17	–	8.3
N#CC(Cc1ccc2c(c1)c(=O)[nH]c1c(F)cc(F)cc12)NC(=O)[C@H]1N[C@@H]2CC[C@H]1C2 (stereo partly drawn) [Example 310]	> 2.17	–	9.4
CS(=O)(=O)c1ccc2[nH]c(=O)c3cc(CC(C#N)NC(=O)[C@H]4N[C@@H]5CC[C@H]4C5)ccc3c2c1 (stereo partly drawn) [Example 313]	> 2.17	–	13.6
N#CC(Cc1ccc2c(c1)c(=O)[nH]c1ccc(N)cc12)NC(=O)[C@H]1N[C@@H]2CC[C@H]1C2 (stereo partly drawn) [Example 314]	> 2.17	–	14
N#C[C@H](Cc1ccc(N2CC3(CNC3)C2)cc1F)NC(=O)[C@H]1N[C@@H]2CC[C@H]1C2 [Example 327]	> 2.17	–	3.4
N#C[C@H](Cc1ccc(N2CCN(C3CCOC3)CC2)cc1F)NC(=O)[C@H]1N[C@@H]2CC[C@H]1C2 (stereo partly drawn) [Example 331]	> 2	1500	–
N#CC(Cc1ccc2c(c1)c(=O)[nH]c1c(C(=O)NC3CC3)cccc12)NC(=O)[C@H]1N[C@@H]2CC[C@H]1C2 (stereo partly drawn) [Example 341]	> 2.17	–	7.6
CN(C)CCn1cc(-c2ccc(C[C@@H](C#N)NC(=O)[C@H]3N[C@@H]4CC[C@H]3C4)c(F)c2)ccc1=O [Example 342]	> 2.17	–	1.3
CNc1nc2cc(-c3ccc(C[C@@H](C#N)NC(=O)[C@H]4N[C@@H]5CC[C@H]4C5)c(F)c3)ccc2[nH]1 [Example 347]	> 2.17	–	8.5
